# Results reported in ChEMBL document CHEMBL1201862, “PubChem BioAssay data set” (2004).
# Active and inactive are the calls of the source.
# How the values were obtained:
# [1] = biological target: Induced myeloid leukemia cell differentiation protein Mcl-1 (Homo sapiens, UniProt Q07820); type: functional
# [2] = biological target: T1, Estrogen receptor beta (Homo sapiens, UniProt Q92731); assay: ERβ–SRC-3 coactivator interaction inhibitors, confirmation, orthogonal assay, biochemical, ELISA, streptavidin-HRP readout (AID 1060)
# T1 sequence (Q92731 whole entry): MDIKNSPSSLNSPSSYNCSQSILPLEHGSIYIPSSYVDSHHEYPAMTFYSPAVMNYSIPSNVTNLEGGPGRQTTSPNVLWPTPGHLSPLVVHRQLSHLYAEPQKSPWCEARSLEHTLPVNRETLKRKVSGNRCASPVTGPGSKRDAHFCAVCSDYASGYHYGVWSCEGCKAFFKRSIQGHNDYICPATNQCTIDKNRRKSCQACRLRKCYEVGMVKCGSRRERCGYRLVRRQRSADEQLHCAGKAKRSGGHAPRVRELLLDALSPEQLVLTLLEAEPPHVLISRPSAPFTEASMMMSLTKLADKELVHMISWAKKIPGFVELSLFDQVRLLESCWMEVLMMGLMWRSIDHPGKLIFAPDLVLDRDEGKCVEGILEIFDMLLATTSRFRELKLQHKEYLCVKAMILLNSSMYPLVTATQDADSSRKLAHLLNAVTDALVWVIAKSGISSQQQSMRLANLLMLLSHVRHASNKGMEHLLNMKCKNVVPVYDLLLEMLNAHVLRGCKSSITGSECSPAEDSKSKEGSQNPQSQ
# [3] = biological target: T2, Voltage-gated N-type calcium channel alpha-1B subunit/Amyloid beta A4 precursor protein-binding family A member 1 (Homo sapiens, UniProt Q00975+Q02410); assay: disruptors of Mint-PDZ/N-type channel peptide interaction – biochemical, HTRF, SAR follow-up (AID 2489); type: functional
# T2 sequence (Q00975 whole entry): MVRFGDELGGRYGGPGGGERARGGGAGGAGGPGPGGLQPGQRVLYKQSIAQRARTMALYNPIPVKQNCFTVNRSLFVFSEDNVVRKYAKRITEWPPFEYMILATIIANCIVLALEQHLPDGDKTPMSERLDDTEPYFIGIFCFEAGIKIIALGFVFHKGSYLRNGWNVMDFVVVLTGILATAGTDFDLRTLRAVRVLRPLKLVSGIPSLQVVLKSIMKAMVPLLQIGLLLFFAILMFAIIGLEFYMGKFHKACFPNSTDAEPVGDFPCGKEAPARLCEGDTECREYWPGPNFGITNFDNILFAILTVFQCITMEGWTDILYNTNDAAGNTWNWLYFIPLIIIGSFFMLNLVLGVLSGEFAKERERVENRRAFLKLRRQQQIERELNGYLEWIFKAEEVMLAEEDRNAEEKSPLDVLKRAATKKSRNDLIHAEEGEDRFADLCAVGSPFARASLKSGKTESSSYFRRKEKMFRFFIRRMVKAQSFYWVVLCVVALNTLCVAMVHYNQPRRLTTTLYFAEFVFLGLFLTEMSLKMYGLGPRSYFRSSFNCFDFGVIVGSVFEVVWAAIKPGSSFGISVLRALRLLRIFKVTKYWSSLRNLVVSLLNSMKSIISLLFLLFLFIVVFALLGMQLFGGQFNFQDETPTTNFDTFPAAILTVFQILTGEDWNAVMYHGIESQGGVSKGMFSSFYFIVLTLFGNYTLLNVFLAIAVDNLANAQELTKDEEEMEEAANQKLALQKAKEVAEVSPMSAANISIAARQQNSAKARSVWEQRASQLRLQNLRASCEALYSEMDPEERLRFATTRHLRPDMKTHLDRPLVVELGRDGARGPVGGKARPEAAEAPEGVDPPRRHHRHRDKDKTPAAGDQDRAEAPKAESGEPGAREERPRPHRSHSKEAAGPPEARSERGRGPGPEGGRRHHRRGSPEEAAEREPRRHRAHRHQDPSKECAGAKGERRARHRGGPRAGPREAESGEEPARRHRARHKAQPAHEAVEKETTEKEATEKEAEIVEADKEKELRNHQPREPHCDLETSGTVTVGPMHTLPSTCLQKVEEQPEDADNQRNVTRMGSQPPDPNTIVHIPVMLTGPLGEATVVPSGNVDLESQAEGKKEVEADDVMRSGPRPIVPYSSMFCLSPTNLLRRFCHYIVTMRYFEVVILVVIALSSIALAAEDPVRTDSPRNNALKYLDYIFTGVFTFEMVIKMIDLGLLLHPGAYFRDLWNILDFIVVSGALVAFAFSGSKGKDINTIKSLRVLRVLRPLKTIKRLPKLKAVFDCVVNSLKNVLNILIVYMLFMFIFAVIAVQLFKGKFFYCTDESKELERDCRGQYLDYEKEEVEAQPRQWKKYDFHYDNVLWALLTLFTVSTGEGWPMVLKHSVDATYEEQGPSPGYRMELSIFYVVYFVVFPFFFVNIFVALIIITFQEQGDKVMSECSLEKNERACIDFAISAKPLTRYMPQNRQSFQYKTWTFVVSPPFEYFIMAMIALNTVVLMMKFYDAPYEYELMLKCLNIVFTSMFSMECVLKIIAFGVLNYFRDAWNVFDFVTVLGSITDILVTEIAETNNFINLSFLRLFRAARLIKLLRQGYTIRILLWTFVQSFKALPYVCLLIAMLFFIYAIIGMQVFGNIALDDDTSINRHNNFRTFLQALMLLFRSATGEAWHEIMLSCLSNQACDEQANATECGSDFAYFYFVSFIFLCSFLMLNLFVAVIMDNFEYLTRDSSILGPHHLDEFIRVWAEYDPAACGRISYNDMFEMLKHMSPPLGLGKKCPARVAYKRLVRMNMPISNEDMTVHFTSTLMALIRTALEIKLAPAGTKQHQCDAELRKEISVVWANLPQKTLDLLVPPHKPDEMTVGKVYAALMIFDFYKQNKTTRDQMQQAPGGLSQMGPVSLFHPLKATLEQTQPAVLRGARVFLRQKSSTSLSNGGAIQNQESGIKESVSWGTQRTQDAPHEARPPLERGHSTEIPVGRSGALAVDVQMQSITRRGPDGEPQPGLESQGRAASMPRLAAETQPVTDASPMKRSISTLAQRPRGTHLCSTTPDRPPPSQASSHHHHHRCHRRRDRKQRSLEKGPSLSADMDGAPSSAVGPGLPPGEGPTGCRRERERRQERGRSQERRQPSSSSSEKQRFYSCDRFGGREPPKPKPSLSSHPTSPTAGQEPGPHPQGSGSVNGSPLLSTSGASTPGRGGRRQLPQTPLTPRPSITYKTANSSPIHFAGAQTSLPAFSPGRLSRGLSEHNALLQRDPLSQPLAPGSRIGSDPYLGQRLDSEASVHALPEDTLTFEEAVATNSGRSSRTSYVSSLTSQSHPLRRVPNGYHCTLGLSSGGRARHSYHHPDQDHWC
# T2 sequence (Q02410 whole entry): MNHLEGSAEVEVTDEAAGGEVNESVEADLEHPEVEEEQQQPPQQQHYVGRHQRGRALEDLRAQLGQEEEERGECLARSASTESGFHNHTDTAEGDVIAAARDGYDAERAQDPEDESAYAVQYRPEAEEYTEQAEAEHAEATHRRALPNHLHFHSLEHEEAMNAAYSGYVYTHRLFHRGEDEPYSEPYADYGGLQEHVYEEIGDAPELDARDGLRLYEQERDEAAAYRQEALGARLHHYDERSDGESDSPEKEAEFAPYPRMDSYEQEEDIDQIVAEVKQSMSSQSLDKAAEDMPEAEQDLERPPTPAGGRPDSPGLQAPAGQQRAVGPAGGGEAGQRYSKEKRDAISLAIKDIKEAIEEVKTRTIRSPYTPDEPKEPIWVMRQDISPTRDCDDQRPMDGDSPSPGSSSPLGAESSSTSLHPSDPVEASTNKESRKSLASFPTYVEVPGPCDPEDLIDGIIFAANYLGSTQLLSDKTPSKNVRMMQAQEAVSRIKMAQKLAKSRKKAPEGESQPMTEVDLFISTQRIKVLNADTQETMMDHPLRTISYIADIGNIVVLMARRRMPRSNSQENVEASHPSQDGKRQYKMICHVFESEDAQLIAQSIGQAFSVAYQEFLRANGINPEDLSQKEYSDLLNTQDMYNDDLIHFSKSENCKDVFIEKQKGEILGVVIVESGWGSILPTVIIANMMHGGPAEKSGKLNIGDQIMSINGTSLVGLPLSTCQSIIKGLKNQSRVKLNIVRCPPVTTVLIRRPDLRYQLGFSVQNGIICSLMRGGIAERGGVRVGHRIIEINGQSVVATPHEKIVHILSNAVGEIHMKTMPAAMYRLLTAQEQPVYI
# [4] = biological target: Genome polyprotein (Hepatitis C virus, UniProt Q2Q167); assay: HCV core protein dimerization inhibitors, dose response, biochemical, TR-FRET (AID 2159); parameters: species or system Hepacivirus hominis;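 further: blocks dimerization of HCV core protein measured by TR-FRET between tagged core106 pairs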
# [5] = biological target: Large T antigen (Simian virus 40, UniProt P03070); type: functional, Betapolyomavirus macacae;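 further: Confirmatory-stage PubChem screen for compounds that inhibit SV40 T antigen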
# [6] = biological target: T2, Voltage-gated N-type calcium channel alpha-1B subunit/Amyloid beta A4 precursor protein-binding family A member 1; type: protein assay
# [7] = biological target: Protein-tyrosine kinase 2-beta (Homo sapiens, UniProt Q14289);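 further: potency of inhibitors of PYK2 kinase phosphorylation of poly-GT substrate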
# Sequence of Protein-tyrosine kinase 2-beta (Q14289 whole entry): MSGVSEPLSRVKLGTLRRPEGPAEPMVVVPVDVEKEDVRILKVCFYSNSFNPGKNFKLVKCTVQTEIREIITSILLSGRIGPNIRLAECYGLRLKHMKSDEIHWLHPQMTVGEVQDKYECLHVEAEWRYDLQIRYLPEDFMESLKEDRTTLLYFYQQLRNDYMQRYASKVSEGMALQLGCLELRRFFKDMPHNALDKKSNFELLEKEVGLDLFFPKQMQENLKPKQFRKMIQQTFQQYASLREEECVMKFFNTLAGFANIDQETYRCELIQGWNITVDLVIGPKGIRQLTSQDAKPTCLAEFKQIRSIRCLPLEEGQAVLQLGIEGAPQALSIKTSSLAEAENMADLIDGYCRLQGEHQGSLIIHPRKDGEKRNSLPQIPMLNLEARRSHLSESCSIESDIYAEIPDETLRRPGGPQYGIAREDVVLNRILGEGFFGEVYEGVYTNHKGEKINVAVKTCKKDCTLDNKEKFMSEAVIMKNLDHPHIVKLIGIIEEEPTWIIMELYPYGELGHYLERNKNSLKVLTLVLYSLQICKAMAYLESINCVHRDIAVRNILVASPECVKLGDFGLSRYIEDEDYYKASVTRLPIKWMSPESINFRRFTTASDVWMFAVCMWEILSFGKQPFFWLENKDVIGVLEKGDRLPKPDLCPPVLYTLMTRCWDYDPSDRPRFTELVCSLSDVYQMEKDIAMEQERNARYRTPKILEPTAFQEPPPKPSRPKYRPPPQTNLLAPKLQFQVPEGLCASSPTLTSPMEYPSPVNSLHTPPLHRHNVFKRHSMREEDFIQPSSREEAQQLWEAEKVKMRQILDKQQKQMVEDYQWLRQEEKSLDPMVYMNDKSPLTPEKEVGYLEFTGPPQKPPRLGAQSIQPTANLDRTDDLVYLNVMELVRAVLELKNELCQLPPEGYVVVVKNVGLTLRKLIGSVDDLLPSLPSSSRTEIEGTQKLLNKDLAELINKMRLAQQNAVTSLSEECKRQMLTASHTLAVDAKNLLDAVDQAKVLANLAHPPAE
# [8] = biological target: T2, Voltage-gated N-type calcium channel alpha-1B subunit/Amyloid beta A4 precursor protein-binding family A member 1; type: protein assay; remark: listed apart in the source
# [9] = biological target: T2, Voltage-gated N-type calcium channel alpha-1B subunit/Amyloid beta A4 precursor protein-binding family A member 1; assay: disruptors of Mint-PDZ/N-type channel peptide interaction – biochemical, HTRF, set 2, SAR follow-up (AID 434980); type: functional
# [10] = biological target: Albumin (Bos taurus, UniProt P02769); assay: Counterscreen for inhibitors of T-cell receptor (TCR)-CD3 interaction: Fluorescence-based biochemical high throughput dose response assay to identify inhibitors of T-cell receptor (TCR)-CD3 interaction using a TAMRA-labeled BSA probe.; type: functional
# [11] = biological target: T3, Heat shock factor protein 1 (Mus musculus, UniProt P38532); assay: inhibition of MG132-induced HSE-luciferase signal, confirmation, cell-based, NIH3T3, luminescence, dose retest (AID 2382); type: functional;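 further: NIH3T3 fibroblasts with HSF1-driven luciferase reporter stressed by proteasome inhibitor MG132; luminescence from HSF1-driven luciferase expression after 8 hours of MG132 stress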
# T3 sequence (P38532 whole entry): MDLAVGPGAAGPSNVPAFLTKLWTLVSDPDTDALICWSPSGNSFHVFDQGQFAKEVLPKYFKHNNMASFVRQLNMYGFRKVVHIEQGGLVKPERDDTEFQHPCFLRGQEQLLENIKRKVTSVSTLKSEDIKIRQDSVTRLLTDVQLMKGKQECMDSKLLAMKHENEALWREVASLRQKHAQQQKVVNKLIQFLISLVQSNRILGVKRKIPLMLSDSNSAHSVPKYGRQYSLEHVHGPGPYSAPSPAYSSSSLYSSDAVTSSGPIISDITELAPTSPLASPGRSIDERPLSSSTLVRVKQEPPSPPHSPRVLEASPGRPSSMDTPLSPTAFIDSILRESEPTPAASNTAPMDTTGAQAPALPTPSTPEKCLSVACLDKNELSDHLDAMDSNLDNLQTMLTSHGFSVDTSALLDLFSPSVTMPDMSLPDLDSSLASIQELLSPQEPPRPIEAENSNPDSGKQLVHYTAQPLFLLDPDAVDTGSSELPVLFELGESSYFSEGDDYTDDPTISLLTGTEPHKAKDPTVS
# [12] = half-maximal inhibitory concentration for glucagon-like peptide-1 release, STC-1 cell line, dose-response (AID 1117345); type: functional, cell-based
# [13] = Glucagon-like peptide 1 release potency, NCI-H716 cell line, dose-response, half-maximal inhibitory concentration (AID 1117344); type: functional, cell-based
# [14] = biological target: NADPH oxidase 1 (Homo sapiens, UniProt Q9Y5S8); assay: Late-stage luminescence-based cell-based dose response assay to identify inhibitors of NADPH oxidase 1 (NOX1): Synthesized analogs.; type: functional
# [15] = Vero cell cytotoxicity, dose response, cytotoxicity control for Vif-APOBEC3G degradation inhibitor project, Vero cells (AID 1117358); type: functional; details: Human immunodeficiency virus 1, Vero
# [16] = P. falciparum Dd2 growth inhibitors, dose response, SYBR Green, dry powder samples (AID 1159566); type: functional, cell-based;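 further: potency for growth inhibition with lower SYBR green DNA signal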
# [17] = P. falciparum ATP4 D1247Y mutant growth inhibitors, dose response, NITD609-resistant line, SYBR Green, dry powder (AID 1159571); type: functional, cell-based;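 further: parasites synchronized at ring stage by sorbitol before testing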
# [18] = P. falciparum 3D7-ScDHODH growth inhibitors, dose response, SYBR Green, dry powder samples (AID 1159570); type: functional, cell-based;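 further: parasite growth measured after 72 hours of compound exposure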
# [19] = P. falciparum Dd2 growth inhibitors, dose response, SYBR Green, cherry-picked samples (AID 1159567); type: functional, cell-based
# [20] = Plasmodium falciparum Dd2 Sybr green parasite growth Measured in Cell-Based and Microorganism Combination System Using Plate Reader - 2153-01_Inhibitor_Dose_DryPowder_Activity_Set3.; type: functional
# [21] = HepG2 cell cytotoxicity, dose response, cytotoxicity control, plate reader, dry powder samples (AID 1159569); type: functional, cell-based;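 further: inhibitor potency with signal falling toward the positive control level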
# [22] = HIV-1 Env-mediated cell fusion inhibitors, dose response, CCR5-tropic Env (AID 2279); type: functional
# [23] = biological target: T4, Long-chain-fatty-acid--AMP ligase FadD28 (Mycobacterium tuberculosis, UniProt P9WQ59); assay: Fluorescence polarization aasay to screen for inhibitors that compete for the binding of FadD28 to a bisubstrate Measured in Biochemical System Using Plate Reader - 2147-01_Inhibitor_Dose_CherryPick_Activity.; type: functional, Mycobacterium tuberculosis H37Rv
# T4 sequence (P9WQ59 whole entry): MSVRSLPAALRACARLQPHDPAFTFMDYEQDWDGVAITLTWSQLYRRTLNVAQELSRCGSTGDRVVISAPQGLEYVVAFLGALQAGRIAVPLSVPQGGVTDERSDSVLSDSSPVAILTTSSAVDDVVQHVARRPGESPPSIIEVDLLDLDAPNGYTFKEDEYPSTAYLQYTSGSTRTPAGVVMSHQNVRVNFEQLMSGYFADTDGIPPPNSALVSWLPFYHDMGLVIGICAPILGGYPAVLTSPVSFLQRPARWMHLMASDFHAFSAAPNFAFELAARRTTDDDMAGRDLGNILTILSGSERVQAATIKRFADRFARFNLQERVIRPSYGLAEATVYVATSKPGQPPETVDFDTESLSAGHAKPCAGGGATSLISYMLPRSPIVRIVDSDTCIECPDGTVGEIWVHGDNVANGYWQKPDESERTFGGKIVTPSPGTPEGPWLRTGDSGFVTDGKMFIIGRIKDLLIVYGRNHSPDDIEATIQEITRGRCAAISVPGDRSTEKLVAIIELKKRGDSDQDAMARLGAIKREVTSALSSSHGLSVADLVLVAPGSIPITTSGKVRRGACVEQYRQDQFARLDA
# [24] = biological target: T5, Histone-lysine N-methyltransferase NSD2 (Homo sapiens, UniProt O96028); type: biochemical
# T5 sequence (O96028 whole entry): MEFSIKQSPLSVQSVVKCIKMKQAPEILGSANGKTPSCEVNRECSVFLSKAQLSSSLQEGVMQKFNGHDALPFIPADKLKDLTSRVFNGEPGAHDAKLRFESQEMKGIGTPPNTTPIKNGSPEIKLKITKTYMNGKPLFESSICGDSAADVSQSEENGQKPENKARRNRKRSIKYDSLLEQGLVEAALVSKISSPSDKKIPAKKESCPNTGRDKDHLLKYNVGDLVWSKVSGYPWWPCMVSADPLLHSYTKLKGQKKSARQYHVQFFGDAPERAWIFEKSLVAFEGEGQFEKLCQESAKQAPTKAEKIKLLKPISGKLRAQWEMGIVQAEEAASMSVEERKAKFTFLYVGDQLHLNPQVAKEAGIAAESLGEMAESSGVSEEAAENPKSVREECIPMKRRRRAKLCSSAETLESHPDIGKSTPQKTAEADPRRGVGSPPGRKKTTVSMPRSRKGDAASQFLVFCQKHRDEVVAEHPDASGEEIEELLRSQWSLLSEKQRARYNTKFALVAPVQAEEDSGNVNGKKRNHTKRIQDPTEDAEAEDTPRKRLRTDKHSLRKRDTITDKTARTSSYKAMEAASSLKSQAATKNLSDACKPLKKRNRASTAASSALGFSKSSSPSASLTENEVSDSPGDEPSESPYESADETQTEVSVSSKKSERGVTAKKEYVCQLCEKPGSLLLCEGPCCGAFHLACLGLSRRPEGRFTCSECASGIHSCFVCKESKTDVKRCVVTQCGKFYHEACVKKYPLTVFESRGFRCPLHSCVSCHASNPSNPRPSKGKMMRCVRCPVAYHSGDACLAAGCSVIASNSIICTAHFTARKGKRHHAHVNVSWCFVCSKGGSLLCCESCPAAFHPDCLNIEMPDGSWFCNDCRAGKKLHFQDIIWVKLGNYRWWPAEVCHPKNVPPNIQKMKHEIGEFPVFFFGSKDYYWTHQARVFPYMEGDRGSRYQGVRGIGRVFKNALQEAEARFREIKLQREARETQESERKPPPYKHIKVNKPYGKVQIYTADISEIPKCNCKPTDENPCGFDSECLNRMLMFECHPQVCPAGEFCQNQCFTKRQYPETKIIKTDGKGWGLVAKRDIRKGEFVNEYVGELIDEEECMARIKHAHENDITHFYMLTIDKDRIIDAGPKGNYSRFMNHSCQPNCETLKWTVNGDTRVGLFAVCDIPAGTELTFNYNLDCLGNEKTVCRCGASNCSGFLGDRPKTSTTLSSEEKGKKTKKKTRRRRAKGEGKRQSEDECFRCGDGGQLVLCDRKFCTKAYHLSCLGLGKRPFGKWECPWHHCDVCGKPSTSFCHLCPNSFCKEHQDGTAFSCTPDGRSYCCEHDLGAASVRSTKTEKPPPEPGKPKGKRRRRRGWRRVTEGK
# [25] = biological target: Heat shock protein HSP 90-alpha (Homo sapiens, UniProt P07900); assay: Luminescence-based dose response biochemical high throughput screening assay for inhibitors of the Heat Shock Protein 90 (HSP90). [Related pubchem assays: 1831 (Summary AID.), 1846 (Confirmation screen.), 1789 (Primary screen.)]
# [26] = biological target: T6, Estrogen receptor (Homo sapiens, UniProt P03372);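 further: potency for inhibiting coactivator peptide recruitment to the receptor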
# T6 sequence (P03372 whole entry): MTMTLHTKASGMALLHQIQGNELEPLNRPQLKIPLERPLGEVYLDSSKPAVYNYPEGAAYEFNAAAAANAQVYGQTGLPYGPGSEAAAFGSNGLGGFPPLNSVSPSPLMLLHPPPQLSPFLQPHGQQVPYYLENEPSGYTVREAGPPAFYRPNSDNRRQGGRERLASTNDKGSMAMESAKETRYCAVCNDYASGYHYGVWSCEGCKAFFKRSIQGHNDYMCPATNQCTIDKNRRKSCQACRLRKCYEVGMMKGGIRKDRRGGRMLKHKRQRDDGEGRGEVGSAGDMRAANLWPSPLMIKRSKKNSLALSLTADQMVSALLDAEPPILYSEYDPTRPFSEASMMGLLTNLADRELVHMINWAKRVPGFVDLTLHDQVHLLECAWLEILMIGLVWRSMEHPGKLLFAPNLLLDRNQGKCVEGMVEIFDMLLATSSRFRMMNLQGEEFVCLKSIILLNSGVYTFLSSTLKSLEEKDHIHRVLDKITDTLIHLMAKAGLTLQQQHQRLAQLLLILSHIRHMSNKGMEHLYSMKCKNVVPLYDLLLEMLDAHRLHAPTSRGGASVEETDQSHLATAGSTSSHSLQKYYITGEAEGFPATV
# [27] = biological target: Heat shock protein HSP90 (Homo sapiens, UniProt P07900+P08238); assay: tumor Hsp90 inhibitor potency, dose response (AID 712); type: functional
# [28] = biological target: T7, CAAX prenyl protease 2 (Homo sapiens, UniProt Q9Y256); assay: human Rce1 protease inhibitors, dose response, biochemical, yeast membranes, quenched-peptide fluorescence, cherry-pick (AID 588849)
# T7 sequence (Q9Y256 whole entry): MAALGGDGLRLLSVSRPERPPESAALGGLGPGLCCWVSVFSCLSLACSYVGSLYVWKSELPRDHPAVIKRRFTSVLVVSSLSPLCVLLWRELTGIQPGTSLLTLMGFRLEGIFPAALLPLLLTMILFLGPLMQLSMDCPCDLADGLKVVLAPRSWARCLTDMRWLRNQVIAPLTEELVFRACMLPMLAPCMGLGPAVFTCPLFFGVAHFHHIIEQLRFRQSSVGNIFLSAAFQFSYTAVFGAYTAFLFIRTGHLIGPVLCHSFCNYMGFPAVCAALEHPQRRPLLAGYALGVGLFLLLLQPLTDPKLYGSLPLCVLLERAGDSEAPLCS
# [29] = biological target: Trypsin (Sus scrofa, UniProt P00761); assay: porcine trypsin inhibitors, dose response, selectivity assay for Rce1 protease inhibitor project, biochemical, quenched peptide fluorescence, cherry-pick (AID 488789)
# [30] = biological target: T1, Estrogen receptor beta
# Sequence of Induced myeloid leukemia cell differentiation protein Mcl-1 (Q07820 whole entry): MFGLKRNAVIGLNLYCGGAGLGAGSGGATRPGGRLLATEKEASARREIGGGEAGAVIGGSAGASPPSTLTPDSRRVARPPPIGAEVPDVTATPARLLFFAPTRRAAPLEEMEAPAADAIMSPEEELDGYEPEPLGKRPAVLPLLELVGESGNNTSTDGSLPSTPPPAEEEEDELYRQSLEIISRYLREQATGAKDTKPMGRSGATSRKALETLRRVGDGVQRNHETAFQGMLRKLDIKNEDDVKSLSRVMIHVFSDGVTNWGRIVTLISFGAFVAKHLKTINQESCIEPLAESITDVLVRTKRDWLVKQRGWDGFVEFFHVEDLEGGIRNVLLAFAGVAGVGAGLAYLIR
compound,measurement,setting,value
Nc1ncnc2oc(-c3ccco3)c(-c3ccco3)c12,IC50,[1],4.12 µM (active)
same,IC50,[2],3.4 µM (not active)
same,IC50,[3],21.7 µM (active)
same,IC50,[4],> 49.8 µM (not active)
same,IC50,[5],49.5 µM (active)
same,IC50,[6],3.82 µM (active)
same,IC50,[7],2.92 µM (active)
same,IC50,[8],2.6 µM (active)
same,IC50,[9],2.42 µM (active)
same,IC50,[10],> 94.1 µM (inactive)
same,EC50,[11],56.7 µM (active)
O=C(O)c1cc(/N=N/c2ccc(O)c(C(=O)O)c2)ccc1O [OLSALAZINE],IC50,[12],9.54 µM (inactive)
same,IC50,[13],> 40 µM (inactive)
CC(=NNc1cccc(C(=O)O)c1)c1ccc2c(c1)Nc1ccccc1S2,IC50,[14],0.305 µM (active)
CC1CCCCN1C(=O)c1ccc(S(=O)(=O)N2CCCCC2C)cc1 (configuration not stated),CC50,[15],> 40 µM (active)
CCCNC(=O)N1[C@H](C#N)[C@H](c2ccc(-c3cccc(OC)c3)cc2)[C@H]1CO,AC50,[16],0.0154 µM (active)
same,AC50,[17],0.0278 µM (active)
same,AC50,[18],10.4 µM (active)
same,AC50,[19],< 0.3 µM (active)
same,AC50,[20],0.0751 µM (active)
same,AC50,[21],> 100 µM (inactive)
COc1ccc(C(=O)Oc2ccc(/C=N/Nc3ccc(Cl)c(C(=O)O)c3)cc2OC)cc1,IC50,[22],7.02 µM (active)
same,AC50,[23],99.3 µM (active)
same,AC50,[24],> 20 µM (inactive)
same,IC50,[25],1.5 µM (active)
COc1ccc(OC)c(/C=N/c2oc(-c3ccco3)c(-c3ccco3)c2C#N)c1,IC50,[1],6.88 µM (active)
same,IC50,[26],16.3 µM (active)
same,IC50,[2],9.23 µM (not active)
same,IC50,[27],21.1062 µM
same,AC50,[28],4.46 µM (active)
same,AC50,[29],7.23 µM (active)
same,IC50,[30],6.47 µM (active)
